Legend:
[1] = target: recombinant human CB1 receptor (Homo sapiens, UniProt P21554); assay: Cannabinoid Receptor-1 (CB1) Binding (IC50) Assay; conditions: [3H]CP-55940 0.6 nM, CHO cell membranes
[2] = target: recombinant human CB1 receptor expressed in CHO cells (Homo sapiens, UniProt P21554); assay: Cannabinoid Receptor-1 (CB1) Functional Activity (EC50) Assay; assay type: cell-based; conditions: forskolin-stimulated intracellular cAMP
mice = conditions: Mazzola et al.; cited from earlier work
[3] = tested on: rodent model of episodic memory; conditions: in combination with Donepezil; Wise et al.; cited from earlier work
rodent models = conditions: naïve as well as scopolamine or Aβ-treated rodent models; Terranova et al.; cited from earlier work

Chain of recombinant human CB1 receptor expressed in CHO cells (P21554 whole entry): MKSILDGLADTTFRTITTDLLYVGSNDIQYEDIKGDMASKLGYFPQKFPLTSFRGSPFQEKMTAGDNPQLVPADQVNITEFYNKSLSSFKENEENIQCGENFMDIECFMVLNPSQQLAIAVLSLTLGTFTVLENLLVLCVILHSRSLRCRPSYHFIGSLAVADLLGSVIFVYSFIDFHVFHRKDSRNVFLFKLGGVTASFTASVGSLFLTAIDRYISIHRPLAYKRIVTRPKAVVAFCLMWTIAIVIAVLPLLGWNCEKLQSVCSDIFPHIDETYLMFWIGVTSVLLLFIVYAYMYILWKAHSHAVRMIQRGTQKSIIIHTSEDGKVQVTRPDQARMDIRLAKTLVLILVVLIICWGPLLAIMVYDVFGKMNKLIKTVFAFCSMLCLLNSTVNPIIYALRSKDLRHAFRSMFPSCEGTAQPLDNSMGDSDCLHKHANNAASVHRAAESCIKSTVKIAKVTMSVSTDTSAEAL
Chain of recombinant human CB1 receptor (P21554 whole entry): as above

Row | Compound | IC50 [1] [nM] | EC50 [2] [nM] | effect on memory deficit induced by Aβ-administration (mice) | effect on cognition scores [3] | effect on learning and memory performance (rodent models)
1 | CC(C)CC(c1cccc(C#N)c1)C(C)NC(=O)C(C)(C)Oc1ccc(C(F)(F)F)cn1 (single isomer, unassigned) [Example I-60, N-(2-(3-cyano-phenyl)-1,4-dimethylpentyl)-2-methyl-2((5-(trifluoromethyl)-pyridin-2-yl)oxy)-propanamide] | 1.39 | 2 | – | – | –
2 | Cc1c(C(=O)NN2CCCCC2)nn(-c2ccc(Cl)cc2Cl)c1-c1ccc(Cl)cc1 [SR 141716] | – | – | improves the memory deficit | – | –
3 | CC(NC(=O)C(C)(C)Oc1ccc(Cl)cn1)C(Cc1ccc(Cl)cc1)c1ccsc1 (stereo not drawn) [Example I-59] | 7.28 | 14 | – | – | –
4 | Cc1c(C(=O)NN2CCCCC2)nn(-c2ccc(Cl)cc2Cl)c1-c1ccc(Cl)cc1 [rimonabant] | – | – | – | additive effects on cognition scores | improves learning and memory performance
5 | CC(NC(=O)C(C)(C)Oc1cc(C(F)(F)F)ncn1)C(Cc1ccc(Cl)cc1)c1cccc(C#N)c1 (stereo not drawn) [Example I-36, N-[3-(4-Chloro-phenyl)-2-(3-cyanophenyl)-1-methylpropyl]-2-(6-trifluoromethyl-4-pyrimidyloxy)-2-methylpropanamide] | 0.66 | 1.25 | – | – | –
6 | CC(NC(=O)C(C)(C)Oc1ccccn1)C(Cc1ccc(Cl)cc1)c1cc(F)cc(F)c1 (single isomer, unassigned) [Example I-25, N-[3-(4-Chloro-phenyl)-2-(3,5-difluorophenyl)-1-methylpropyl]-2-methyl-2-(2-pyridyloxy)-propanamide] | 0.45 | 1.33 | – | – | –
7 | CC(NC(=O)C(C)(C)Oc1ccccn1)C(Cc1ccc(Cl)cc1)c1ccccc1 (stereo not drawn) [Example I-6, N-[3-(4-Chloro-phenyl)-1-methyl-2-phenylpropyl]-2-(2-pyridyloxy)-2-methylpropanamide] | 2.3 | 2.1 | – | – | –
8 | CC(NC(=O)C(C)(C)Oc1ccc(C(F)(F)F)cn1)C(Cc1ccc(Cl)cc1)c1cncc(C#N)c1 (single isomer, unassigned) [Example I-39, N-[3-(4-Chloro-phenyl)-2-(5-cyano-3-pyridyl)-1-methylpropyl]-2-(5-trifluoromethyl-2-pyridyloxy)-2-methylpropanamide] | 3 | 1.5 | – | – | –

More lines, main results first:

Row | IC50 [1] [nM] | EC50 [2] [nM] | Compound | effect on memory deficit induced by Aβ-administration (mice) | effect on cognition scores [3] | effect on learning and memory performance (rodent models)
9 | 3 | 2 | CC(C)(F)[C@H](c1cc(F)cc(C#N)c1)C1CN([C@@H](c2ccc(C#N)cc2)c2cccc(C#N)c2)C1 [II] | – | – | –
10 | 0.33 | 2 | CC(NC(=O)C(C)(C)Oc1ccc(C(F)(F)F)cn1)C(CC1CCCC1)c1cccc(C#N)c1 (single isomer, unassigned) [Example I-62, N-(2-(3-cyano-phenyl)-3-cyclopentyl-1-methylpropyl)-2-methyl-2((5-(trifluoromethyl)-pyridin-2-yl)oxy)-propanamide] | – | – | –
11 | 29.4 | 13 | CC(NC(=O)C(C)(C)Oc1ccc(C(F)(F)F)cn1)C(Cc1ccc(Cl)cc1)c1cc(C#N)c[n+]([O-])c1 (stereo not drawn) [Example I-64] | – | – | –

From patent publication US20100227844A1, “CANNABINOID-1 RECEPTOR MODULATORS USEFUL FOR THE TREATMENT OF ALZHEIMER'S DISEASE” (priority 2007, published 2010)
